# ChEMBL document CHEMBL1201862, “PubChem BioAssay data set” (2004)
# Activity calls are given as the source filed them.
# What was measured:
# [1] = target: T1, RNA-binding protein pos-1 (Caenorhabditis elegans, UniProt G5EF15); assay: disruptors of C. elegans POS-1 RNA interaction – biochemical, fluorescence polarization, dose response (AID 1964);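 also: purified POS-1 fused to maltose binding protein made in E. coli; potency of compounds blocking POS-1 binding to fluorescent RNA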
# T1 sequence (G5EF15 whole entry): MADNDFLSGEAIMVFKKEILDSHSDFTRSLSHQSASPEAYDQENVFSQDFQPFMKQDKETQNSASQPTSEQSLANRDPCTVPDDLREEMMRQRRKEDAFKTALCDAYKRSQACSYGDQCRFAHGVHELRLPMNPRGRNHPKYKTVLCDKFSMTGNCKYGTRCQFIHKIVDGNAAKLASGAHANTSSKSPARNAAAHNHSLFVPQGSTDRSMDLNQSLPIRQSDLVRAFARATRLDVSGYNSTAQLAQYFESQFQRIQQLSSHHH
# [2] = target: T2, Zinc finger protein mex-5 (Caenorhabditis elegans, UniProt Q9XUB2); assay: potency of MEX-5 RNA-binding blockers – biochemical, C. elegans, fluorescence polarization, dose response (AID 1960)
# T2 sequence (Q9XUB2 whole entry): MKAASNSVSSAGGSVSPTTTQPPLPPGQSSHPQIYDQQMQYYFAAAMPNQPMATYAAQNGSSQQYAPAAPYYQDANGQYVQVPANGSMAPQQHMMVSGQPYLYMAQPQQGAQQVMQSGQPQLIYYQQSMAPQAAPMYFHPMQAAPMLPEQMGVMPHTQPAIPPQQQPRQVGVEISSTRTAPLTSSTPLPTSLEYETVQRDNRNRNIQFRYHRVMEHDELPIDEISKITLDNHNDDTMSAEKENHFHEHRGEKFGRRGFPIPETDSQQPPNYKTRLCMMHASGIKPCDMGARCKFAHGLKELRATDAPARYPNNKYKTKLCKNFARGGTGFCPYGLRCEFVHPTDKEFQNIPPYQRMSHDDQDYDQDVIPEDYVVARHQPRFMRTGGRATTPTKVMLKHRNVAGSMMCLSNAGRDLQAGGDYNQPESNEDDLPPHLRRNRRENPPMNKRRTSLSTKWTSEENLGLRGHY
# [3] = target: T3, Estrogen receptor (Homo sapiens, UniProt P03372);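 also: potency for inhibiting coactivator peptide recruitment to the receptor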
# T3 sequence (P03372 whole entry): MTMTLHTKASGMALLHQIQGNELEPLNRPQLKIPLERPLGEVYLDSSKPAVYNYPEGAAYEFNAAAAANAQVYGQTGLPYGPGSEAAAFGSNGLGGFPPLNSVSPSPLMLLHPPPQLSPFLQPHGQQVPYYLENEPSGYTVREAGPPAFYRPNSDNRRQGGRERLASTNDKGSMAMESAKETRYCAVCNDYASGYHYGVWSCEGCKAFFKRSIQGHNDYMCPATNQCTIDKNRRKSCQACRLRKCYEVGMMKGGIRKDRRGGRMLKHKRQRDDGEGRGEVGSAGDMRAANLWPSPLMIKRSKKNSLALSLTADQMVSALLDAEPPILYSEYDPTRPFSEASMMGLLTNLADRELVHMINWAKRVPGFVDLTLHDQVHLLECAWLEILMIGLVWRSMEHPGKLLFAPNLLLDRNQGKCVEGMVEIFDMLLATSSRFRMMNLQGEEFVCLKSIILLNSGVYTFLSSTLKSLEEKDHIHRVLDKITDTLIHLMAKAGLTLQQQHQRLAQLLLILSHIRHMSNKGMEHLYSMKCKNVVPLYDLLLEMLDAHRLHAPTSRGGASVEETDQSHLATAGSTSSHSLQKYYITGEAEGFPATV
# [4] = target: T4, Polyadenylate-binding protein 1 (Homo sapiens, UniProt P11940); assay: MLLE binding blockers, Cy5 peptide tracer – biochemical, fluorescence polarization, Cy5-PAM2 peptide, secondary, miRNA deadenylation inhibitor project, dose response (AID 602260); format: functional; conditions: read-out: IC50_Mean
# [5] = target: T4, Polyadenylate-binding protein 1; assay: MLLE domain peptide-binding blockers, IC50 – biochemical, fluorescence polarization, FITC-PAM2 peptide, dose response (AID 602259); format: functional; conditions: read-out: IC50_Mean
# [6] = Luminescence Cell-Based Dose Confirmation HTS to Identify Activators of 5'UTR Stem-Loop Driven Alpha-Synuclein mRNA Translation in H4 Neuroglioblastoma Cells. [Related pubchem assays: 1829 (Project Summary), 1814 (Primary HTS)]; format: functional
# [7] = Luminescence Cell-Based Dose Response HTS to Identify Activators of Luciferase Translation or Activity in H4 […] Cells. [Related pubchem assays: 1829 (Project Summary), 1814 (Primary HTS)]; format: functional
# [8] = tested on: H4; assay: Luminescence Cell-Based Dose Response HTS to Identify Activators of 5'UTR Stem-Loop Driven Prion Protein mRNA Translation in H4 Neuroglioblastoma Cells. [Related pubchem assays: 1829 (Project Summary), 1814 (Primary HTS)]; format: functional; conditions: Homo sapiens
# [9] = cells; format: functional
# [10] = target: Genome polyprotein (dengue virus type 2, UniProt P29990); assay: flavivirus cap methylation enzyme inhibition – biochemical, confirmation dose response, primary screen (AID 588689); format: functional
# [11] = microbe, parasite or virus in culture; format: functional; conditions: Mycobacterium tuberculosis
# [12] = THP-1 cell cytotoxicity, dose response, cytotoxicity control for non-replicating M. tuberculosis project (AID 489025); format: functional
# [13] = Vero E6 cell cytotoxicity, dose response, cytotoxicity control for non-replicating M. tuberculosis project, secondary assay (AID 492998); format: functional, VeroE6; conditions: Vero C1008
# [14] = tested on: Streptococcus sp. 'group A'; assay: Streptococcus pyogenes SK(-)GAS viability under kanamycin – luminescence, BacTiterGlo, confirmation, counter-screen for streptokinase expression inhibitor project, dose response (AID 1900); format: functional, organism-based
# [15] = target: T5, Streptokinase A (Streptococcus pyogenes serotype M1, UniProt P10520); assay: viability-normalized secreted streptokinase activity reduction – plasminogen activation absorbance, OD405, dose response (AID 1914); format: functional, Streptococcus pyogenes M1 GAS;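 also: secreted streptokinase activity via plasminogen activation per viability signal from cell pellet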
# T5 sequence (P10520 whole entry): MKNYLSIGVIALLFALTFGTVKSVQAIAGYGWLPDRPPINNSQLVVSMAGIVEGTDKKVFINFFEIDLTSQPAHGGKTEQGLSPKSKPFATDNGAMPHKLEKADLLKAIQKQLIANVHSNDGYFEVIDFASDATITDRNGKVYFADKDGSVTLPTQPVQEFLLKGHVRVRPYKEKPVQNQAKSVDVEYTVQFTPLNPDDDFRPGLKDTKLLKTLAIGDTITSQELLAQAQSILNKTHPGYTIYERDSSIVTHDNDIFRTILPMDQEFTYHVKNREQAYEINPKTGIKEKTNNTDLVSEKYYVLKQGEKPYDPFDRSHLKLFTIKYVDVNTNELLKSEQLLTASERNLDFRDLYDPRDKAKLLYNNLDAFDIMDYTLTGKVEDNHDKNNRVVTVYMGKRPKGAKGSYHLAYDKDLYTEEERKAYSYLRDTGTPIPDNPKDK
# [16] = tested on: Streptococcus; assay: GAS UMAA2166 growth inhibition – luminescence, BacTiterGlo, counter-screen for streptokinase expression inhibitor project, dose response (AID 1915); format: functional, organism-based;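 also: potency for reduction of bacterial viability or growth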
# [17] = target: Large T antigen (Simian virus 40, UniProt P03070); format: functional, Betapolyomavirus macacae;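 also: Confirmatory-stage PubChem screen for compounds that inhibit SV40 T antigen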
# [18] = tested on: SN12K1; assay: cells; format: functional; conditions: Homo sapiens
# [19] = blockers of HIV-1 envelope-mediated cell-cell fusion – cherry-pick, dose response (AID 652057); format: functional, cell-based
# [20] = blockers of HIV-1 ZM109 envelope-driven cell-cell fusion – HeLa effector, CEM target cells, luciferase, cherry-pick, dose response (AID 652058); format: functional, cell-based;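 also: luciferase signal from HIV-1 Env mediated cell-cell fusion of effector and target cells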
# [21] = HIV-1 AD8 envelope cell-cell fusion blockers – cherry-pick, dose response (AID 652062); format: functional, cell-based;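 also: luciferase signal from cell-cell fusion driven by HIV-1 clade B AD8 Env; potency is for inhibitors of fusion seen as a drop in luminescence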
# [22] = target: FAD-linked sulfhydryl oxidase ALR (Homo sapiens, UniProt P55789); assay: ALR-catalysed DTT oxidation blockers – biochemical, H2O2 detection, luminescence, cherry-pick, dose response (AID 493248)
# FAD-linked sulfhydryl oxidase ALR, sequence (P55789 whole entry): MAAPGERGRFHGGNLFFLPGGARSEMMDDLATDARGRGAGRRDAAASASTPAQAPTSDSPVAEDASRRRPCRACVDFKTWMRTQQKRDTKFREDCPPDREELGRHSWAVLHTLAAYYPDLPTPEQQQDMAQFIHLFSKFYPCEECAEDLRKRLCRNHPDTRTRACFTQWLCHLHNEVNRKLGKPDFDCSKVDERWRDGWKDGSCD
# Genome polyprotein, sequence (P29990 2492-3391 limits assumed): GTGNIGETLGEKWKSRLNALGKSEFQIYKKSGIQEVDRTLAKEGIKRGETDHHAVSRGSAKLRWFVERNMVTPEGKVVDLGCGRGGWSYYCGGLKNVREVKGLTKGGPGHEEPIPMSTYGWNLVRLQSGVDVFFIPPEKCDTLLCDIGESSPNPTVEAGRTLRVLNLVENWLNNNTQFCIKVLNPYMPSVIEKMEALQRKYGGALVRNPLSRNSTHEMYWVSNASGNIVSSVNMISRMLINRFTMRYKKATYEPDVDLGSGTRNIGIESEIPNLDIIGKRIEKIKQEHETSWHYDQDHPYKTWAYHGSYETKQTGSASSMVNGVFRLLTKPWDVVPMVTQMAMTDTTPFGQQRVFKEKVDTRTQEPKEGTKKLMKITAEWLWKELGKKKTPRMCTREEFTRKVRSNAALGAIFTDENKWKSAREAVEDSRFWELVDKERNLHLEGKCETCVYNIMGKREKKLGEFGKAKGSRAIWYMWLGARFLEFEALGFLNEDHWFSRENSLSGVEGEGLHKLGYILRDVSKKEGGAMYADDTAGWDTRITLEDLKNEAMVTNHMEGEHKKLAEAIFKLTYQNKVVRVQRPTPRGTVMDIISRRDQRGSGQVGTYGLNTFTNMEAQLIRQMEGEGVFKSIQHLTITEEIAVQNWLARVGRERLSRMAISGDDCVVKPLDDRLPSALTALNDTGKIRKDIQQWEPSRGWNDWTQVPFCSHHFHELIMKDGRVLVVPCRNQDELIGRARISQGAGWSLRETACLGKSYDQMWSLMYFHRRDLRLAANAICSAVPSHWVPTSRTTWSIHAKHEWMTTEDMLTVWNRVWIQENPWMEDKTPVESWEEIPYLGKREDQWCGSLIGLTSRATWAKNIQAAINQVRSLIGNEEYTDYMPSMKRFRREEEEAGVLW
# Large T antigen, sequence (P03070 whole entry): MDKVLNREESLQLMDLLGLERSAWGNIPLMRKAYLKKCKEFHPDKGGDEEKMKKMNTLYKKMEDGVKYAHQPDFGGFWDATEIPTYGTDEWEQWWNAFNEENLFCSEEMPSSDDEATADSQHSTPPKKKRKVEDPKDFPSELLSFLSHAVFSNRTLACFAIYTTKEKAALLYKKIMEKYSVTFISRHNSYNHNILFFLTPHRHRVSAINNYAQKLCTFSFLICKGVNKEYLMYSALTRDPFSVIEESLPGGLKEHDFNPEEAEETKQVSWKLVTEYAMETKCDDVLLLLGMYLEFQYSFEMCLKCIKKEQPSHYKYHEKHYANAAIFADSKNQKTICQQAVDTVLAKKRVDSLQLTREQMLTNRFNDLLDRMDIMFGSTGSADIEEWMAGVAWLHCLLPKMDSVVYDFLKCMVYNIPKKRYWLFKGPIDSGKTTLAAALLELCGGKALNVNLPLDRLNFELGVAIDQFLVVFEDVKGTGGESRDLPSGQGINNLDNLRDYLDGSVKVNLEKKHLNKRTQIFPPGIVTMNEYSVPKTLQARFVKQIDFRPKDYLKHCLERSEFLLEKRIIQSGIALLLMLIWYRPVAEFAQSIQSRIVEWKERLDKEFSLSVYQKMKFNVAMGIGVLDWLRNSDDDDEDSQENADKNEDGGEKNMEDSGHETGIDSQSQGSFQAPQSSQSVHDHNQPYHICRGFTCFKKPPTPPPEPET
# T4 sequence (P11940 whole entry, the tested form may be a part): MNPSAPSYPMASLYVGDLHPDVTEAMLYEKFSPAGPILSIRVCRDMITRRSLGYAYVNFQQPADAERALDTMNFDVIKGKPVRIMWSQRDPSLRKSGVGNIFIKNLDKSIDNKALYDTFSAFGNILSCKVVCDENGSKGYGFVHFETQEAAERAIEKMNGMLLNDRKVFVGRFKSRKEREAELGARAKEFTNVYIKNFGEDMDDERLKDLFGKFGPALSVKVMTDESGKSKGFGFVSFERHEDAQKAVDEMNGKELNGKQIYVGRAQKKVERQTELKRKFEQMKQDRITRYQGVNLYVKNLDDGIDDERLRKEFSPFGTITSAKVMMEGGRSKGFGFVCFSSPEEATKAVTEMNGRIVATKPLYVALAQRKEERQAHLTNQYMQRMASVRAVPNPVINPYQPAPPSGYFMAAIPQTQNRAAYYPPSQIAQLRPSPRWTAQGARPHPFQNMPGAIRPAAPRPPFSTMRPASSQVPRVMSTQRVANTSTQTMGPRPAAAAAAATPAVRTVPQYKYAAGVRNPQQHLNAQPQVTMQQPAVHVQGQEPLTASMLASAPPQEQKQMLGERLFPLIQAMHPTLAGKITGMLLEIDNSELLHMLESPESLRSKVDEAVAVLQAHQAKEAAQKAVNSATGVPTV
structure (smiles),measurement,setting,value
Fc1ccc(NCc2cccnc2)cc1F,EC50,[1],15.4 µM (active)
same,EC50,[2],11.2 µM (active)
same,IC50,[3],> 50 µM (not active)
same,IC50,[4],> 66 µM (inactive)
same,IC50,[5],49.1 µM (inactive)
O=C(COn1nnc2ccccc21)NCC1CCCCC1,EC50,[6],5.83 µM (active)
same,EC50,[7],68.8 µM (active)
same,EC50,[8],31.9 µM (inconclusive)
CC12CN3CC(C)(CN(C1)C3c1ccc([N+](=O)[O-])o1)C2 (stereo not drawn),IC50,[9],11.1 µM (active)
COc1ccccc1-c1cc(C(=O)Nc2sc3c(c2C#N)CCC(C)C3)c2ccccc2n1 (stereo not drawn),IC50,[10],97.8 µM (active)
Cn1cnc([N+](=O)[O-])c1Sc1ccc(Br)cc1,CC50,[11],32.4 µM (active)
same,CC50,[12],34.4 µM (active)
same,CC50,[13],> 20 µM (active)
same,IC50,[9],11.5 µM (active)
CSCCC1NC(=O)NC1=O (stereo not drawn),IC50,[3],> 50 µM (not active)
COc1cc2cc(C(c3nnnn3C3CCCC3)N3CCc4ccccc43)c(=O)[nH]c2cc1OC (stereo not drawn),IC50,[3],21.9 µM (active)
Cc1cc(O)nc(-n2nc(C)cc2C)n1,CC50,[12],> 40 µM (active)
same,CC50,[13],> 20 µM (active)
same,IC50,[9],3.82 µM (active)
COc1ccc2cc(C(=O)C3CCCN(Cc4cccc(C)n4)C3)ccc2c1 (stereo not drawn),EC50,[14],11.1 µM (active)
same,EC50,[15],> 150 µM (not active)
same,EC50,[16],> 150 µM (not active)
same,CC50,[12],> 40 µM (active)
same,IC50,[9],3 µM (active)
C=CCOc1c(Br)cc(/C=C2/C(=O)ON=C2C)cc1OC,IC50,[10],> 100 µM (active)
Cc1ccc(CCC(=O)Nc2cc(Cl)ccc2Cl)o1,IC50,[9],42.8 µM (active)
Cc1cccn2c(CN(C)CCC3CCCCO3)c(C(=O)N3CCCCC3)nc12 (stereo not drawn),EC50,[6],19.9 µM (active)
same,EC50,[7],> 120 µM (not active)
same,EC50,[8],> 120 µM (not active)
CC1(C)CC(=O)C(C(c2ccc(Br)cc2)C2C(=O)CC(C)(C)CC2=O)C(=O)C1,IC50,[10],79.3 µM (active)
O=C(O)c1cc(S(=O)(=O)O)cc(Nc2c3ccccc3nc3ccccc23)c1O,IC50,[17],20.2 µM (active)
Cn1c(=O)c2c(nc(NCC3CCCC(CN)C3)n2Cc2ccc(Cl)cc2Cl)n(C)c1=O (stereo not drawn),EC50,[6],> 120 µM (not active)
same,EC50,[7],> 120 µM (not active)
same,EC50,[8],> 120 µM (not active)
O=C(c1ccc(-c2ccc([N+](=O)[O-])cc2)o1)N1CCCCCCC1,CC50,[12],9 µM (active)
same,CC50,[13],9.37 µM (active)
same,IC50,[9],12.7 µM (active)
COC(=O)C1=C(O)/C(=C\c2ccc(CNC(=O)C(=O)Nc3ccc(C)c(C)c3)o2)N=C1C,IC50,[3],19.6 µM (active)
O=[N+]([O-])c1ccc(Sc2n[nH]c(-c3ccccc3)n2)nc1,EC50,[6],5.81 µM (active)
same,EC50,[7],93.9 µM (active)
same,EC50,[8],> 120 µM (not active)
Cc1ccc(NC(=O)C2OCCc3ccccc32)cc1 (stereo not drawn),EC50,[6],14.7 µM (active)
same,EC50,[7],12 µM (active)
same,EC50,[8],31.4 µM (active)
CCOC(=O)c1ccsc1NC(=O)CCS(=O)(=O)c1ccccc1,CC50,[12],34.5 µM (active)
same,CC50,[13],> 20 µM (active)
CCN(CC)c1ccc(NC(=O)c2ccccc2F)cc1,IC50,[17],18.8 µM (active)
COc1ccc2nc(NC3=NCCC3)sc2c1,EC50,[6],37.7 µM (active)
same,EC50,[7],22.1 µM (active)
same,EC50,[8],8.52 µM (active)
CN(C)CCNC(=O)c1cc([N+](=O)[O-])cc2ccc(-c3ccccc3)nc12,GI50,[18],3.04 µM (inactive)
O=C(C[C@H]1C=C[C@@H](NC(=O)Nc2ccccc2F)[C@@H](CO)O1)NCc1ccc(-c2ccccc2)cc1,AC50,[19],< 0.26 µM (active)
same,AC50,[20],< 0.26 µM (active)
same,AC50,[21],< 0.26 µM (active)
C[C@H](CO)N1C[C@H](C)[C@H](CN(C)S(=O)(=O)c2ccccc2)Oc2ccc(NC(=O)Cn3cnnn3)cc2CC1=O,AC50,[19],13.5 µM (active)
same,AC50,[20],2.07 µM (active)
same,AC50,[21],20.3 µM (active)
Cc1ccc(S(=O)(=O)N2CCN(CC(=O)N/N=C\c3ccc(O)c(O)c3)CC2)cc1,IC50,[17],9.98 µM (active)
same,AC50,[22],2.26 µM (active)
COC(=O)c1ccc(/N=C/c2c(-c3ccccc3)n[nH]c2O)cc1,EC50,[6],> 120 µM (not active)
same,EC50,[7],> 120 µM (not active)
same,EC50,[8],> 120 µM (not active)
COc1cc(/C=c2\sc3nc(-c4ccncc4)nn3c2=O)ccc1OC(C)=O,IC50,[3],31.7 µM (not active)
